Laboratory results from article PMC9482650, “Quantitative fragmentomics allow affinity mapping of interactomes” (Nature Communications, 2022).
Ends that are not written are not given here.

What was measured:
Assay in all cases: Holdup assay
Type in all cases: binding
Inadl_3 PDZ = Inadl_3 PDZ (Homo sapiens, UniProt Q8NI35); settings: composite holdup affinity; 0.00=below quantification threshold; read-out: COMP pKd (converted)
FRMPD2_1 PDZ = FRMPD2_1 PDZ (Homo sapiens, UniProt Q68DX3); settings: composite holdup affinity; 0.00=below quantification threshold; read-out: COMP pKd (converted)
PDZD2_4 PDZ = PDZD2_4 PDZ (Homo sapiens, UniProt O15018); settings: sheet PPI_convert; read-out: affinity to PDZ PDZD2_4 (converted)
ARHGEF12 PDZ = ARHGEF12 PDZ (Homo sapiens, UniProt Q9NZN5); settings: composite holdup affinity; 0.00=below quantification threshold; read-out: COMP pKd (converted)
LNX1_2 PDZ = LNX1_2 PDZ (Homo sapiens, UniProt Q8TBB1); settings: composite holdup affinity; 0.00=below quantification threshold; read-out: COMP pKd (converted)
FRMPD2_3 PDZ = FRMPD2_3 PDZ (Homo sapiens, UniProt Q68DX3); settings: composite holdup affinity; 0.00=below quantification threshold; read-out: COMP pKd (converted)
MAGI1_5 PDZ = MAGI1_5 PDZ (Homo sapiens, UniProt Q96QZ7); settings: sheet PPI_convert; read-out: affinity to PDZ MAGI1_5 (converted)
Inadl_8 PDZ = Inadl_8 PDZ (Homo sapiens, UniProt Q8NI35); settings: composite holdup affinity; 0.00=below quantification threshold; read-out: COMP pKd (converted)
LIN7A PDZ = LIN7A PDZ (Homo sapiens, UniProt O14910); settings: composite holdup affinity; 0.00=below quantification threshold; read-out: COMP pKd (converted)
PDZRN3_1 PDZ = PDZRN3_1 PDZ (Homo sapiens, UniProt Q9UPQ7); settings: composite holdup affinity; 0.00=below quantification threshold; read-out: COMP pKd (converted)
SNTB1 PDZ = SNTB1 PDZ (Homo sapiens, UniProt Q13884); settings: composite holdup affinity; 0.00=below quantification threshold; read-out: COMP pKd (converted)
FRMPD3 PDZ = FRMPD3 PDZ (Homo sapiens, UniProt Q5JV73); settings: composite holdup affinity; 0.00=below quantification threshold; read-out: COMP pKd (converted)
GRIP1_2 PDZ = GRIP1_2 PDZ (Homo sapiens, UniProt Q9Y3R0); settings: composite holdup affinity; 0.00=below quantification threshold; read-out: COMP pKd (converted)
GRIP1_1 PDZ = GRIP1_1 PDZ (Homo sapiens, UniProt Q9Y3R0); settings: sheet PPI_convert; read-out: affinity to PDZ GRIP1_1 (converted)
LAP2 PDZ = LAP2 PDZ (Homo sapiens, UniProt Q96RT1); settings: composite holdup affinity; 0.00=below quantification threshold; read-out: COMP pKd (converted)
DLG1_1 PDZ = DLG1_1 PDZ (Homo sapiens, UniProt Q12959); settings: composite holdup affinity; 0.00=below quantification threshold; read-out: COMP pKd (converted)
HTRA1 PDZ = HTRA1 PDZ (Homo sapiens, UniProt Q92743); settings: composite holdup affinity; 0.00=below quantification threshold; read-out: COMP pKd (converted)
GRASP PDZ = GRASP PDZ (Homo sapiens, UniProt Q7Z6J2); settings: composite holdup affinity; 0.00=below quantification threshold; read-out: COMP pKd (converted)
SYNJ2BP PDZ = target: T1, SYNJ2BP PDZ (Homo sapiens, UniProt P57105); settings: composite holdup affinity; 0.00=below quantification threshold; read-out: COMP pKd (converted)
T1 sequence (P57105 13-100 limits assumed): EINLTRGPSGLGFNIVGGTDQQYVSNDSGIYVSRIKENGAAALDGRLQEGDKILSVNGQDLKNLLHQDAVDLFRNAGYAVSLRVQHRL

TX1BP3 PDZ = target: T2, TX1BP3 PDZ (Homo sapiens, UniProt O14907); settings: composite holdup affinity; 0.00=below quantification threshold; read-out: COMP pKd (converted)
T2 sequence (O14907 15-112 limits assumed): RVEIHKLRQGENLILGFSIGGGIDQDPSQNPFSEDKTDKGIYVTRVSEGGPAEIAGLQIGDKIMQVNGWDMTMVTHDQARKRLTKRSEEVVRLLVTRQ

GIPC1 PDZ = GIPC1 PDZ (Homo sapiens, UniProt O14908); settings: sheet PPI_convert; read-out: affinity to PDZ GIPC1 (converted)
From the text: Supplement 41467_2022_33018_MOESM4_ESM.xlsx, sheet "PPI_convert" | column: GIPC1

PDZD2_2 PDZ = PDZD2_2 PDZ (Homo sapiens, UniProt O15018); settings: composite holdup affinity; 0.00=below quantification threshold; read-out: COMP pKd (converted)
DLG3_2 PDZ = DLG3_2 PDZ (Homo sapiens, UniProt Q92796); settings: composite holdup affinity; 0.00=below quantification threshold; read-out: COMP pKd (converted)
DLG1_2 PDZ = DLG1_2 PDZ (Homo sapiens, UniProt Q12959); settings: composite holdup affinity; 0.00=below quantification threshold; read-out: COMP pKd (converted)
MAGI2_4 PDZ = MAGI2_4 PDZ (Homo sapiens, UniProt Q86UL8); settings: composite holdup affinity; 0.00=below quantification threshold; read-out: COMP pKd (converted)
FRMPD2_2 PDZ = FRMPD2_2 PDZ (Homo sapiens, UniProt Q68DX3); settings: composite holdup affinity; 0.00=below quantification threshold; read-out: COMP pKd (converted)
MAGI1_3 PDZ = MAGI1_3 PDZ (Homo sapiens, UniProt Q96QZ7); settings: sheet PPI_convert; read-out: affinity to PDZ MAGI1_3 (converted)
GRIP2_4 PDZ = GRIP2_4 PDZ (Homo sapiens, UniProt Q9C0E4); settings: composite holdup affinity; 0.00=below quantification threshold; read-out: COMP pKd (converted)
RADIL PDZ = RADIL PDZ (Homo sapiens, UniProt Q96JH8); settings: composite holdup affinity; 0.00=below quantification threshold; read-out: COMP pKd (converted)
DLG5_2 PDZ = DLG5_2 PDZ (Homo sapiens, UniProt Q8TDM6); settings: sheet PPI_convert; read-out: affinity to PDZ DLG5_2 (converted)
CNKSR1 PDZ = CNKSR1 PDZ (Homo sapiens, UniProt Q969H4); settings: sheet PPI_convert; read-out: affinity to PDZ CNKSR1 (converted)
From the text: Supplement 41467_2022_33018_MOESM4_ESM.xlsx, sheet "PPI_convert" | column: CNKSR1

CARD14 PDZ = CARD14 PDZ (Homo sapiens, UniProt Q9BXL6); settings: sheet PPI_convert; read-out: affinity to PDZ CARD14 (converted)
PDZRN3_2 PDZ = PDZRN3_2 PDZ (Homo sapiens, UniProt Q9UPQ7); settings: sheet PPI_convert; read-out: affinity to PDZ PDZRN3_2 (converted)
Sequence of PDZRN3_2 PDZ (Q9UPQ7 419-503 limits assumed): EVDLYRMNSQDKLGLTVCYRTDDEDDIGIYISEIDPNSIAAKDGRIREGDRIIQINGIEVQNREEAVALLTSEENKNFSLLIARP

Sequence of ARHGEF12 PDZ (Q9NZN5 72-151 limits assumed): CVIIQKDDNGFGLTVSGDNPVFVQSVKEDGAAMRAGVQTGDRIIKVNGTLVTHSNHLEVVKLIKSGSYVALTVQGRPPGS
Sequence of PDZRN3_1 PDZ (Q9UPQ7 249-339 limits assumed): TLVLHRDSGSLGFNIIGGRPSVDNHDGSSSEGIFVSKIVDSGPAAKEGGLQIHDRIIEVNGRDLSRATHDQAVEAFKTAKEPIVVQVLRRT
Sequence of LAP2 PDZ (Q96RT1 1321-1410 limits assumed): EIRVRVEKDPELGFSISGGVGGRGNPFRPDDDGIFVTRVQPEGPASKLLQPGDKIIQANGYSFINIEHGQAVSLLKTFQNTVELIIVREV
Sequence of SNTB1 PDZ (Q13884 112-195 limits assumed): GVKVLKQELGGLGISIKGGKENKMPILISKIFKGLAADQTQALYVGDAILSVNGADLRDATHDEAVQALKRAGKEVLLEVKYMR
Sequence of FRMPD2_2 PDZ (Q68DX3 950-1035 limits assumed): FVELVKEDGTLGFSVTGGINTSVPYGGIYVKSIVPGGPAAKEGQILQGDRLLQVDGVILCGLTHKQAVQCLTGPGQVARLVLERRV
Sequence of PDZD2_4 PDZ (O15018 728-813 limits assumed): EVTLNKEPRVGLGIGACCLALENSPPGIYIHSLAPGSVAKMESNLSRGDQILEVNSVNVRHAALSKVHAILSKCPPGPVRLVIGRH
Sequence of PDZD2_2 PDZ (O15018 334-419 limits assumed): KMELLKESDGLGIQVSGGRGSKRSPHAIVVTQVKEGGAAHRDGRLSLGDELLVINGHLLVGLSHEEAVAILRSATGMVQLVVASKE
Sequence of DLG3_2 PDZ (Q92796 226-311 limits assumed): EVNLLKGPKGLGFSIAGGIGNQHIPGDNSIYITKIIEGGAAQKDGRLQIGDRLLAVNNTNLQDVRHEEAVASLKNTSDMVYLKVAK
Sequence of GRIP1_2 PDZ (Q9Y3R0 150-238 limits assumed): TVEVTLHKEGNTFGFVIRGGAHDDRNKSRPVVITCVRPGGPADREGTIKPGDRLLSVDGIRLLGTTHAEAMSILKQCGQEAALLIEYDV
Sequence of MAGI2_4 PDZ (Q86UL8 778-860 limits assumed): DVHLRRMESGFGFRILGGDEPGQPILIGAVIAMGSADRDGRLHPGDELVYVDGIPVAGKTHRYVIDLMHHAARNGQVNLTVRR
Sequence of GIPC1 PDZ (O14908 133-213 limits assumed): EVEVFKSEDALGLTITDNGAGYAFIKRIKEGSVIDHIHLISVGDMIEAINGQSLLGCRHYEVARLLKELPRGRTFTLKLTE
Sequence of CNKSR1 PDZ (Q969H4 196-285 limits assumed): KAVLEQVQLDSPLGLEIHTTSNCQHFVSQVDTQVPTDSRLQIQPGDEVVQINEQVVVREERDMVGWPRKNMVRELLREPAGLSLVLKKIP
Sequence of GRASP PDZ (Q7Z6J2 101-190 limits assumed): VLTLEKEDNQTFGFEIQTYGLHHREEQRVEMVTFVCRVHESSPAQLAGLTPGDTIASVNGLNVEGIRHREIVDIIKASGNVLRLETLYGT
Sequence of FRMPD2_1 PDZ (Q68DX3 775-861 limits assumed): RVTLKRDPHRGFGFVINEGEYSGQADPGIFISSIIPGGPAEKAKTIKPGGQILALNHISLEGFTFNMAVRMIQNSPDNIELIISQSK
Sequence of GRIP1_1 PDZ (Q9Y3R0 53-136 limits assumed): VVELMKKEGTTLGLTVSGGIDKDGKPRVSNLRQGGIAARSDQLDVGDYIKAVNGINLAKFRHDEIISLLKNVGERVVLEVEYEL
Sequence of HTRA1 PDZ (Q92743 365-467 limits assumed): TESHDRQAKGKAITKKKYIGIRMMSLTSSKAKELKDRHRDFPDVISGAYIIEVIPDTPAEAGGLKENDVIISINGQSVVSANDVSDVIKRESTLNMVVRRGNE
Sequence of RADIL PDZ (Q96JH8 976-1061 limits assumed): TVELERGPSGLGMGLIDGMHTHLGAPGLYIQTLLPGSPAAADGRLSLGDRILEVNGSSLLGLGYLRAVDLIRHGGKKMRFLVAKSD
Sequence of MAGI1_3 PDZ (Q96QZ7 643-721 limits assumed): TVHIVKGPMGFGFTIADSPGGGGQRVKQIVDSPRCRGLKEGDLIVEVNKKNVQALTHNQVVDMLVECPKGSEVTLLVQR
Sequence of FRMPD2_3 PDZ (Q68DX3 1079-1167 limits assumed): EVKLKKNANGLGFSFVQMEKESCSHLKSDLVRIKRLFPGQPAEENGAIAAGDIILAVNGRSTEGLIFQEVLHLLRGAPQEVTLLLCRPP
Sequence of CARD14 PDZ (Q9BXL6 568-658 limits assumed): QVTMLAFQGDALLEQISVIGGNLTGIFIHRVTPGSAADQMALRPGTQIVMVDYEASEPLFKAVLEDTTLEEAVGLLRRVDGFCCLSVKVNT
Sequence of LIN7A PDZ (O14910 108-190 limits assumed): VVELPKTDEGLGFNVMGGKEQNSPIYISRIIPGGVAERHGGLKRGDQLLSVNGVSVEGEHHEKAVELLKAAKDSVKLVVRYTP
Sequence of GRIP2_4 PDZ (Q9C0E4 456-545 limits assumed): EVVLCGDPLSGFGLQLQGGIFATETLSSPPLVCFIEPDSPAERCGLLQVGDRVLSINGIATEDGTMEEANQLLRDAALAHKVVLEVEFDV
Sequence of Inadl_3 PDZ (Q8NI35 365-453 limits assumed): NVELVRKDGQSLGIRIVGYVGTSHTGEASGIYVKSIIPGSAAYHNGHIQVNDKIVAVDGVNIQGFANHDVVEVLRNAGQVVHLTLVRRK
Sequence of FRMPD3 PDZ (Q5JV73 21-98 limits assumed): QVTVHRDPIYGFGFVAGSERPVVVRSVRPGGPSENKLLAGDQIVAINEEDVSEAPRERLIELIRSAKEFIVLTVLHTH
Sequence of MAGI1_5 PDZ (Q96QZ7 970-1066 limits assumed): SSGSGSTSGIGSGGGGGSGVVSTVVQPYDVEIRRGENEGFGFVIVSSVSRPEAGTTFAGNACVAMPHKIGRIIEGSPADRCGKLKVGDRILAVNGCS
Sequence of DLG5_2 PDZ (Q8TDM6 705-796 limits assumed): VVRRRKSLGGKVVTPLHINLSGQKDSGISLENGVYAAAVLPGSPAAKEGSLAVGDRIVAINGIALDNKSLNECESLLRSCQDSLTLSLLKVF
Sequence of Inadl_8 PDZ (Q8NI35 1437-1520 limits assumed): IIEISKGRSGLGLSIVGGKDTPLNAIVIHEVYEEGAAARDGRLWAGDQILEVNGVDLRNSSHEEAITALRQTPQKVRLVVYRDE
Sequence of LNX1_2 PDZ (Q8TBB1 381-464 limits assumed): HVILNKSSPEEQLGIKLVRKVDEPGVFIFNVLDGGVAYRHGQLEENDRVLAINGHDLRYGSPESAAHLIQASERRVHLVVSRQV

RHTTSTETAV [HPV30-E6]
Kd (Inadl_3 PDZ): 170 µM | Kd (FRMPD2_1 PDZ): 72.4 µM | Kd (PDZD2_4 PDZ): 16.6 µM | Kd (ARHGEF12 PDZ): 63.1 µM | Kd (LNX1_2 PDZ): 214 µM | Kd (FRMPD2_3 PDZ): 135 µM | Kd (MAGI1_5 PDZ): 9.55 µM | Kd (Inadl_8 PDZ): 115 µM | Kd (LIN7A PDZ): 158 µM | Kd (PDZRN3_1 PDZ): 20.9 µM | Kd (SNTB1 PDZ): 7.94 µM | Kd (FRMPD3 PDZ): 174 µM | Kd (GRIP1_2 PDZ): 166 µM | Kd (GRIP1_1 PDZ): 25.7 µM | Kd (LAP2 PDZ): 34.7 µM | Kd (DLG1_1 PDZ): 11.7 µM | Kd (HTRA1 PDZ): 186 µM | Kd (GRASP PDZ): 110 µM | Kd (SYNJ2BP PDZ): 4.37 µM | Kd (TX1BP3 PDZ): 22.4 µM | Kd (GIPC1 PDZ): 20 µM | Kd (PDZD2_2 PDZ): 38 µM | Kd (DLG3_2 PDZ): 3.89 µM | Kd (DLG1_2 PDZ): 2.34 µM | Kd (MAGI2_4 PDZ): 85.1 µM | Kd (FRMPD2_2 PDZ): 58.9 µM | Kd (MAGI1_3 PDZ): 19.1 µM | Kd (GRIP2_4 PDZ): 219 µM

RTRQRNETQV [HPV51-E6]
Kd (PDZD2_4 PDZ): 45.7 µM | Kd (ARHGEF12 PDZ): 186 µM | Kd (RADIL PDZ): 151 µM | Kd (PDZRN3_1 PDZ): 87.1 µM | Kd (DLG5_2 PDZ): 23.4 µM | Kd (CNKSR1 PDZ): 36.3 µM | Kd (SNTB1 PDZ): 81.3 µM | Kd (GRIP1_2 PDZ): 347 µM | Kd (LAP2 PDZ): 204 µM | Kd (DLG1_1 PDZ): 16.6 µM | Kd (SYNJ2BP PDZ): 9.55 µM | Kd (TX1BP3 PDZ): 74.1 µM | Kd (CARD14 PDZ): 45.7 µM | Kd (GIPC1 PDZ): 7.94 µM | Kd (PDZRN3_2 PDZ): 69.2 µM | Kd (PDZD2_2 PDZ): 263 µM | Kd (DLG3_2 PDZ): 7.94 µM | Kd (DLG1_2 PDZ): 7.41 µM | Kd (MAGI2_4 PDZ): 39.8 µM | Kd (FRMPD2_2 PDZ): 389 µM
